Reference: ChEMBL document CHEMBL5032522, “N-2-(phenylamino) benzamide derivatives as novel anti-glioblastoma agents: Synthesis and biological evaluation” (Eur J Med Chem, 2021)
Activity calls are given as the source filed them. The calls are words filed in the database; no cut-off is given here.

How the values were obtained:
U-251 [1] = assay: Induction of cell cycle arrest in human U-251 cells assessed as reduction in G0/G1 phase accumulation at 10 uM incubated for 72 hrs by propidium iodide/RNase A staining based flow cytometry (reference value: 79.12%); assay type: functional; design: scale not given: the % may be the effect or the level left
[2] = molecular target: DNA topoisomerase 2-alpha (Homo sapiens) (UniProt P11388); assay: Inhibition of human topoisomerase 2 alpha using supercoiled DNA pBR322 as substrate assessed as DNA relaxation at 100 uM incubated for 30 mins by ethidium bromide staining based agarose gel electrophoresis
DNA topoisomerase 2-alpha (Homo sapiens), sequence (P11388 whole entry): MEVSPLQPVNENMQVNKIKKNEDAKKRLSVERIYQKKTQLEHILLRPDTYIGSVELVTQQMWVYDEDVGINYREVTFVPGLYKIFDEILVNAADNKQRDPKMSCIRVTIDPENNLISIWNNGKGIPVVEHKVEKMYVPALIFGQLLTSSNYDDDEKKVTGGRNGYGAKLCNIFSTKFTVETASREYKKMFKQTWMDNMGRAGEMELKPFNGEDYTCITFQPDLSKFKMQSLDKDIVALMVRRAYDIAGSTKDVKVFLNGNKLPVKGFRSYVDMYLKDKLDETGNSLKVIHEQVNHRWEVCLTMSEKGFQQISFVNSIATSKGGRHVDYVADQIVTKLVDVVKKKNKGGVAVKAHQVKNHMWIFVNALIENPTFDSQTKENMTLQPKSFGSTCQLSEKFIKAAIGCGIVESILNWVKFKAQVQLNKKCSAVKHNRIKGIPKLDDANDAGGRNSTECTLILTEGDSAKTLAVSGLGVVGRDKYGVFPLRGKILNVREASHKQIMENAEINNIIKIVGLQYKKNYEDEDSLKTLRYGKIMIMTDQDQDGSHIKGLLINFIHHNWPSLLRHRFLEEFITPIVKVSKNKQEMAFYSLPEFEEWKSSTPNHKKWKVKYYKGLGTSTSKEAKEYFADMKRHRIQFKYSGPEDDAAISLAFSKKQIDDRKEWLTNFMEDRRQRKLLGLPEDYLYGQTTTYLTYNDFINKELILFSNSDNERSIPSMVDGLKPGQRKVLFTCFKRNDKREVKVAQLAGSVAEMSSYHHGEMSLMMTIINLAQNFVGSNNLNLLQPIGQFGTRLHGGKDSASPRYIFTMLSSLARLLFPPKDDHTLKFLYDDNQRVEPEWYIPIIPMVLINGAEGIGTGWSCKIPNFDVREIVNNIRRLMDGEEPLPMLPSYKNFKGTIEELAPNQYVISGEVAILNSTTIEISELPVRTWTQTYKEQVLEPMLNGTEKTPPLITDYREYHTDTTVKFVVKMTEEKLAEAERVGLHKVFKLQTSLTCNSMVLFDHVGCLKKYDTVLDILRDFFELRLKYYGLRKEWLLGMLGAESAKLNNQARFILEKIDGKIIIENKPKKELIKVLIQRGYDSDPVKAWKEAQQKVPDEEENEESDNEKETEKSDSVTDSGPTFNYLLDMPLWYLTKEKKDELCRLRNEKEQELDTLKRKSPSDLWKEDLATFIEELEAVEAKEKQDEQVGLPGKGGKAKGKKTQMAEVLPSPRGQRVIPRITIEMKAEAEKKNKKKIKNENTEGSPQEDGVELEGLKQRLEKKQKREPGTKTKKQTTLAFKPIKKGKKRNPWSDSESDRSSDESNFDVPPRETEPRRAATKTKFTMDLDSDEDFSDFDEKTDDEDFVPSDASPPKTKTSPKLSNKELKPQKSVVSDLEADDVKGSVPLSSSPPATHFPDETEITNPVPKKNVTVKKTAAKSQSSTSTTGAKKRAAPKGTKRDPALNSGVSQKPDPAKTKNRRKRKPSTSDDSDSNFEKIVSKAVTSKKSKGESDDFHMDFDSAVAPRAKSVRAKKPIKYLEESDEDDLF

[3] = Tmax in Sprague-Dawley rat at 100 mg/kg, ip measured up to 24 hrs by LC-MS analysis; assay type: ADME, organism-based; settings: in vivo
[4] = molecular target: T1, Prostaglandin G/H synthase 2 (Homo sapiens, UniProt P35354); assay: Inhibition of human recombinant COX-2 using arachidonic acid as substrate preincubated 10 mins followed by substrate addition and measured after 2 mins by ELISA
T1 sequence (P35354 whole entry): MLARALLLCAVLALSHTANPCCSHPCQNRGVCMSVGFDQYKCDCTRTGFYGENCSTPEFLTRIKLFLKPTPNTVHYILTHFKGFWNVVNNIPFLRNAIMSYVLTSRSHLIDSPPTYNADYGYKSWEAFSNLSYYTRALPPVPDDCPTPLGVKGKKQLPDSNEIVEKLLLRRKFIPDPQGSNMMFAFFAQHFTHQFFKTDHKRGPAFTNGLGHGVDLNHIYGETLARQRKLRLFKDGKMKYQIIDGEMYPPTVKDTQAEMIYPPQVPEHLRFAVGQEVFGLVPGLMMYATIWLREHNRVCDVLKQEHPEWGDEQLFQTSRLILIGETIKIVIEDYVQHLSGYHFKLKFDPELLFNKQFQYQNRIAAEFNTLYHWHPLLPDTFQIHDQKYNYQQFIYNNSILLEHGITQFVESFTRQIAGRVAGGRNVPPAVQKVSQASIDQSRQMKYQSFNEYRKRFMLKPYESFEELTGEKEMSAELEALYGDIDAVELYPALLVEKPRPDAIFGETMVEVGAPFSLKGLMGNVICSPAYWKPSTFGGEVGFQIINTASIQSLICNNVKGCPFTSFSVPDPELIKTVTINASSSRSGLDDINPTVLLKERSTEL

[5] = Acute toxicity in Kunming mouse assessed as death at 1000 mg/kg, ip administered as single dose observed every day for 14 days; assay type: organism-based; settings: in vivo, 336 h, time 14 day
[6] = molecular target: T2, Prostaglandin G/H synthase 2 (Homo sapiens) (UniProt P35354); assay: Inhibition of COX-2 in human U-87 MG cells assessed as inhibition of PGE2 production measured after 72 hrs; assay type: cell-based
T2 sequence (whole entry): T1 sequence (P35354 whole entry)

[7] = Acute toxicity in Kunming mouse assessed as death at 750 mg/kg, ip administered as single dose observed every day for 14 days; assay type: organism-based; settings: in vivo, 336 h, time 14 day
U-87 MG [8] = assay: Inhibition of cell invasion in human U-87 MG cells incubated for 24 hrs by crystal violet staining based light microscopic analysis; assay type: functional; settings: U-87MG ATCC
U-251 [9] = assay: Inhibition of cell invasion in human U-251 cells incubated for 24 hrs by crystal violet staining based light microscopic analysis; assay type: functional
U-251 [10] = assay: Induction of morphological changes in human U-251 cells assessed as appearance of shrunken cell bodies at 3.3 uM incubated for 72 hrs by Giemsa staining based light microscopic method; assay type: functional
C6 [11] = assay: Antitumor activity against rat C6 cells inoculated orthotopic Sprague-Dawley rat model assessed as reduction in tumor volume at 100 mg/kg, ip bid administered for 14 days; assay type: functional, organism-based; settings: time 14.0 day
C6 [12] = assay: Antitumor activity against rat C6 cells inoculated orthotopic Sprague-Dawley rat model assessed as tumor growth inhibition at 100 mg/kg, ip bid administered for 14 days by MRI scanner relative to control; assay type: functional; settings: 336 h, time 14 day, read-out: TGI
U-251 [13] = assay: Antiproliferative activity against human U-251 cells assessed as inhibition of cell growth measured up to 72 hrs by CCK-8 assay; assay type: functional, cell-based; settings: time hrs <=72
C6 [14] = assay: Antitumor activity against rat C6 cells inoculated orthotopic Sprague-Dawley rat model assessed as reduction in tumor weight at 100 mg/kg, ip bid administered for 14 days by MRI scanner; assay type: functional, organism-based; settings: time 14.0 day
U-251 [15] = assay: Induction of morphological changes in human U-251 cells assessed as membrane blebbing at 3.3 uM incubated for 72 hrs by Giemsa staining based light microscopic method; assay type: functional, cell-based
U-251 [16] = assay: Induction of morphological changes in human U-251 cells assessed as appearance of rounded and shortened cells at 3.3 uM incubated for 72 hrs by Giemsa staining based light microscopic method; assay type: functional, cell-based
[17] = Cmax in Sprague-Dawley rat at 100 mg/kg, ip measured up to 24 hrs by LC-MS analysis; assay type: ADME, organism-based; design: route intraperitoneal, dose 100 mg/kg, time <=24; settings: in vivo
[18] = Half life in Sprague-Dawley rat at 100 mg/kg, ip measured up to 24 hrs by LC-MS analysis; assay type: ADME, organism-based; settings: in vivo
U-87 MG [19] = assay: Inhibition of colony formation in human U-87 MG cells measured after 8 days by crystal violet staining based assay; assay type: functional, cell-based; settings: U-87MG ATCC, time 8.0 day
U-87 MG [20] = assay: Induction of cell cycle arrest in human U-87 MG cells assessed as accumulation of cells at G2/M phase incubated for 72 hrs by propidium iodide/RNase A staining based flow cytometry analysis; assay type: functional; settings: U-87MG ATCC
U-251 [21] = assay: Antiproliferative activity against human U-251 cells assessed as inhibition of cell growth measured after 72 hrs by CCK-8 assay; assay type: functional, cell-based; settings: U-251, 72 h
[22] = Drug concentration in Sprague-Dawley rat plasma at 100 mg/kg, ip measured 6 hrs post administration by LC-MS analysis; assay type: ADME, organism-based
[23] = Ratio of drug concentration in brain to plasma in Sprague-Dawley rat at 100 mg/kg, ip measured 6 hrs post administration by LC-MS/MS analysis; assay type: ADME, organism-based; settings: read-out: BPR
C6 [24] = assay: Antiproliferative activity against rat C6 cells assessed as inhibition of cell growth measured after 72 hrs by CCK-8 assay; assay type: functional, cell-based; settings: C6, 72 h
U-87 MG [25] = assay: Induction of morphological changes in human U-87 MG cells assessed as membrane blebbing at 3.3 uM incubated for 72 hrs by Giemsa staining based light microscopic method; assay type: functional, cell-based; settings: U-87MG ATCC
U-251 [26] = assay: Antiproliferative activity against human U-251 cells assessed as cell survival at <= 1.1 uM measured after 24 hrs by CCK-8 assay; assay type: functional; settings: dose microM <=1.1
U-87 MG [27] = assay: Induction of morphological changes in human U-87 MG cells assessed as appearance of rounded and shortened cells at 3.3 uM incubated for 72 hrs by Giemsa staining based light microscopic method; assay type: functional, cell-based; settings: U-87MG ATCC
[28] = Toxicity in Sprague-Dawley rat inoculated with C6 cells assessed as reduction in body weight at 100 mg/kg, ip bid administered for 14 days; assay type: organism-based; settings: in vivo, 336 h, time 14 day
U-251 [29] = assay: Induction of cell cycle arrest in human U-251 cells assessed as accumulation of cells at G2/M phase incubated for 72 hrs by propidium iodide/RNase A staining based flow cytometry analysis; assay type: functional
U-87 MG [30] = assay: Antiproliferative activity against human U-87 MG cells assessed as inhibition of cell growth measured up to 72 hrs by CCK-8 assay; assay type: functional, cell-based; settings: U-87MG ATCC, time hrs <=72

Structure (SMILES)	Activity (U-251 [1]) [%]	inhibition [2]	Tmax [3] [h]	IC50 [4] [µM]	Activity [5]	inhibition [6]	Activity [7]	inhibition (U-87 MG [8])	inhibition (U-251 [9])	Activity (U-251 [10])	Activity (C6 [11])	inhibition in vivo at 100 mg/kg (C6 [12]) [%]	Activity (U-251 [13])	Activity (C6 [14])	Activity (U-251 [15])	Activity (U-251 [16])	Cmax [17] [ng/mL]	half-life [18] [h]	inhibition (U-87 MG [19])	Activity (U-87 MG [20])	also measured
COc1ccc(NC(=O)c2ccccc2Nc2cccc(Cl)c2C)cc1	26.28	inactive	3.33	33.6	Toxic	Active	Non-Toxic	Dose-Dependent Effect	Dose-Dependent Effect	Active	Active	66.7	Dose-Dependent Effect	Active	Active	Active	8370	6.7	Dose-Dependent Effect	Dose-Dependent Effect	IC50 (U-251 [21]): 5.36 µM; concentration at 6 h [22]: 5790 ng/mL; Kp at 6 h [23]: 0.65; IC50 (C6 [24]): 10.1 µM; Activity (U-87 MG [25]): Active; Survival (U-251 [26]): >80%; Activity (U-87 MG [27]): Active; Activity [28]: Non-Toxic; Activity (U-251 [29]): Dose-Dependent Effect; Activity (U-87 MG [30]): Dose-Dependent Effect
Cc1c(Cl)cccc1Nc1ccccc1C(=O)Nc1ccc2c(c1)OCO2	25.36	inactive	3.33	45	Toxic	Active	Non-Toxic	Dose-Dependent Effect	Dose-Dependent Effect	Active	Active	56.4	Dose-Dependent Effect	Active	Active	Active	8870	8.36	Dose-Dependent Effect	Dose-Dependent Effect	IC50 (U-251 [21]): 9.91 µM; concentration at 6 h [22]: 4990 ng/mL; Kp at 6 h [23]: 0.29; IC50 (C6 [24]): 16.9 µM; Activity (U-87 MG [25]): Active; Survival (U-251 [26]): >80%; Activity (U-87 MG [27]): Active; Activity [28]: Non-Toxic; Activity (U-251 [29]): Dose-Dependent Effect; Activity (U-87 MG [30]): Dose-Dependent Effect
